For orientation: IC50 means the concentration that inhibits the measured activity by half.

For 17 compounds, IC50 results are on record in US10821115B2, “Compounds that inhibit Mcl-1 protein” (priority 2017, dated 2020).

Assay [1] has as its target recombinant human Mcl-1 (residues 171-327) / Bim interaction (Homo sapiens (Human), UniProt Q07820). Nature of the assay: biochemical. Type of assay: binding. Conditions: read-out: Mcl-1 HTRF IC50.
Procedure: The inhibition of the Mcl-1/Bim interaction was measured using a time-resolved fluorescence resonance energy transfer (TR-FRET) assay. […] The TR-FRET assay was conducted in a 384-well white OptiPlate™ (PerkinElmer, Waltham, Mass.) in a total volume of 40 μL. The reaction mixture contained 0.1 nM Mcl-1(171-327), 0.05 nM biotin-Bim (51-76), 0.05 nM LANCE® Eu-W1024 Anti-6×His (PerkinElmer), 0.072 nM Streptavidin-Xlent (Cisbio, Bedford, Mass.), and serially diluted test compounds in the binding buffer of 20 mM Hepes, pH 7.5, 150 mM NaCl, 0.016 mM Brij®35, and 1 mM dithiothreitol. Test compounds were pre-incubated with Mcl-1(171-327) and biotin-Bim (51-76) for 60 min before addition of the detection mixture (LANCE® Eu-W1024 Anti-6×His and Streptavidin-Xlent). The reaction plates were further incubated overnight and then were read on an Envision® multimode reader (PerkinElmer). Fluorescence signals were measured at 620 nm (40-nm bandwidth) and 665 nm (7.5-nm bandwidth) with a 60 is delay after excitation at 320 nm (75-nm bandwidth). The signal ratio at 665/620 nm corresponded to the Mcl-1/Bim interaction and was used in all data analyses. The IC50 values of test compounds were determined from duplicate data by analyzing competition curves using a four-parameter sigmoidal model in GraphPad Prism (GraphPad Software, San Diego, Calif.) or in Genedata Screener® (Genedata, Basel, Switzerland).
The subject of assay [2] is human multiple myeloma cell line, OPM-2. Nature of the assay: Cell viability assay (OPM-2 10 FBS), CellTiter-Glo. The format is cell-based. In outline: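 3000 cells/well, RPMI 1640 + 10% FBS; serial compound dilutions, 16 h, 37 °C/5% CO2.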
The mark [3] stands for this setting: 0.1 nM Mcl-1(171-327), 0.05 nM biotin-Bim (51-76).
The mark [4] stands for this setting: Homo sapiens, OPM-2, 16 h, read-out: OPM-2 10% FBS IC50 IP, OPM-2 cells, 10% FBS, 16 h incubation.
[5] abbreviates: TR-FRET, Mcl-1(171-327) / biotin-Bim (51-76).
[6] abbreviates: read-out: OPM-2 10% FBS IC50 IP, OPM-2 cells, 10% FBS, 16 h, CellTiter-Glo.
Setting [7] is: Homo sapiens, OPM-2, 16 h, read-out: OPM-2 10% FBS IC50 IP, OPM-2 cells, 10% FBS, 16 h, CellTiter-Glo.

Molecules are shown by their SMILES. Like-named read-outs stand apart in the source and are kept apart here.

Sequence of recombinant human Mcl-1 (residues 171-327) / Bim interaction (Q07820 171-327): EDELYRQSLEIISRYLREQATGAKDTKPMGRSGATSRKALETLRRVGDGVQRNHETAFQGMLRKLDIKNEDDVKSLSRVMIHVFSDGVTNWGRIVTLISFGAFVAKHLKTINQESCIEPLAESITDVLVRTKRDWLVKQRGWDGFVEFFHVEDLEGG

With `CNC[C@@]1(OC)/C=C/C[C@H](C)[C@@H](C)S(=O)(=O)NC(=O)c2ccc3c(c2)N(C[C@@H]2CC[C@H]21)C[C@@]1(CCCc2cc(Cl)ccc21)CO3` [Example 70, (1S,3′R,6′R,7′R,8′E,11′S,12′R)-6-chloro-7′-methoxy-11′,12′-dimethyl-7′-((methylamino)methyl)-3,4-dihydro-2H,15′H-spiro[naphthalene-1,22′-[20]oxa[13]thia[1,14]diazatetracyclo [14.7.2.0~3,6~.0~19,24~]pentacosa[8,16,18,24]tetraen]-15′-one 13′,13′-dioxide], the IC50 came to 1.33 nM in assay [1] (setting [3]) and 3140 nM in assay [2] (setting [4]).
Regarding `C[C@@H]1[C@@H](C)C/C=C/[C@@](O)([C@@H]2CCN(C)C2=O)[C@@H]2CC[C@H]2CN2C[C@@]3(CCCc4cc(Cl)ccc43)COc3ccc(cc32)C(=O)NS1(=O)=O` [Example 100137, (1S,3′R,6′R,7′S,8′E,11′S,12′R)-6-chloro-7′-hydroxy-11′,12′-dimethyl-7′-((3S)-1-methyl-2-oxo-3-pyrrolidinyl)-3,4-dihydro-2H,15′H-spiro[naphthalene-1,22′-[20]oxa[13]thia[1,14]diazatetracyclo [14.7.2.0~3,6~.0~19,24~]pentacosa[8,16,18,24]tetraen]-15′-one 13′,13′-dioxide], the results for the 50% inhibitory concentration (IC50) in assay [1] (setting [5]) and in assay [2] (setting [6]) were 0.365 nM and 2820 nM, respectively.
In the case of `CO[C@@]1(CN2CCN3CCOC[C@@H]3C2)/C=C/C[C@H](C)[C@@H](CCN2CCOCC2)S(=O)(=O)NC(=O)c2ccc3c(c2)N(C[C@@H]2CC[C@H]21)C[C@@]1(CCCc2cc(Cl)ccc21)CO3` [Example 361, (1S,3′R,6′R,7′S,8′E,11′S,12′R)-6-chloro-7′-((9aS)-hexahydropyrazino[2,1-c][1,4]oxazin-8(1H)-ylmethyl)-7′-methoxy-11′-methyl-12′-(2-(4-morpholinyl)ethyl)-3,4-dihydro-2H,15′H-spiro[naphthalene-1,22′-[20]oxa[13]thia[1,14]diazatetracyclo [14.7.2.0~3,6~.0~19,24~]pentacosa[8,16,18,24]tetraen]-15′-one 13′,13′-dioxide], the IC50 in assay [1] (setting [3]) stood at 0.101 nM; in assay [2] (setting [4]) it was 28 nM.
As for `Cc1ccc([C@]2(O)/C=C/C[C@H](C)[C@@H](C)S(=O)(=O)NC(=O)c3ccc4c(c3)N(C[C@@H]3CC[C@H]32)C[C@@]2(CCCc3cc(Cl)ccc32)CO4)nc1` (single isomer, unassigned) [Example 100439], the IC50 is 0.619 nM in assay [1] (setting [5]) and 2640 nM in assay [2] (setting [7]).
The corresponding values for `C[C@@H]1[C@@H](C)CCC[C@@](O)(C2SCCCS2)[C@@H]2CC[C@H]2CN2C[C@@]3(CCCc4cc(Cl)ccc43)COc3ccc(cc32)C(=O)NS1(=O)=O` [Example 100238, (1S,3′R,6′R,7′S,11′S,12′R)-6-chloro-7′-(1,3-dithian-2-yl)-7′-hydroxy-11′,12′-dimethyl-3,4-dihydro-2H,15′H-spiro[naphthalene-1,22′-[20]oxa[13]thia[1,14]diazatetracyclo [14.7.2.0~3,6~.0~19,24~]pentacosa[16,18,24]trien]-15′-one 13′,13′-dioxide] are 0.474 nM and 747 nM.
Turning to `C[C@@H]1[C@@H](C)CCC[C@](O)(CC(=S)N(C)C)[C@@H]2CC[C@H]2CN2C[C@@]3(CCCc4cc(Cl)ccc43)COc3ccc(cc32)C(=O)NS1(=O)=O` (single isomer, unassigned) [Example 100173], the IC50 in assay [1] (setting [5]) is 0.539 nM; in assay [2] (setting [6]), 379 nM.
As to `CO[C@]1(CCN2CCN3CCCC[C@@H]3C2)CCC[C@H](C)[C@@H](C)S(=O)(=O)NC(=O)c2ccc3c(c2)N(C[C@@H]2CC[C@H]21)C[C@@]1(CCCc2cc(Cl)ccc21)CO3` [Example 100592, (1S,3′R,6′R,7′S,11′S,12′R)-6-chloro-7′-methoxy-11′,12′-dimethyl-7′-(2-((9aR)-octahydro-2H-pyrido[1,2-a]pyrazin-2-yl)ethyl)-3,4-dihydro-2H,15′H-spiro[naphthalene-1,22′-[20]oxa[13]thia[1,14]diazatetracyclo [14.7.2.0~3,6~.0~19,24~]pentacosa[16,18,24]trien]-15′-one 13′,13′-dioxide], the IC50 in assay [1] (setting [5]) came to 0.275 nM; in assay [2] (setting [7]), 139 nM.
Take `CO[C@@]1(CN2CCN(C3COCCOC3)CC2)/C=C/C[C@H](C)[C@@H](C)S(=O)(=O)NC(=O)c2ccc3c(c2)N(C[C@@H]2CC[C@H]21)C[C@@]1(CCCc2cc(Cl)ccc21)CO3` [Example 340, (1S,3′R,6′R,7′S,8′E,11′S,12′R)-6-chloro-7′-((4-(1,4-dioxepan-6-yl)-1-piperazinyl)methyl)-7′-methoxy-11′,12′-dimethyl-3,4-dihydro-2H,15′H-spiro[naphthalene-1,22′-[20]oxa[13]thia[1,14]diazatetracyclo [14.7.2.0~3,6~.0~19,24~]pentacosa[8,16,18,24]tetraen]-15′-one 13′,13′-dioxide]: the IC50 came to 0.128 nM in assay [1] (setting [3]) and 60 nM in assay [2] (setting [4]).
Regarding `CO[C@]1(CN2CC[C@@H]3CCCC[C@H]3C2)/C=C/C[C@H](C)[C@@H](C)S(=O)(=O)NC(=O)c2ccc3c(c2)N(C[C@@H]2CC[C@H]21)C[C@@]1(CCCc2cc(Cl)ccc21)CO3` (single isomer, unassigned) [Example 90], the IC50 in assay [1] (setting [3]) turned out to be 4.66 nM; in assay [2] (read-out: OPM-2 10% FBS IC50 IP, OPM-2 cells, 10% FBS, 16 h incubation), 8980 nM.
For `COc1ncccc1[C@@]1(O)/C=C/C[C@H](C)[C@@H](C)S(=O)(=O)NC(=O)c2ccc3c(c2)N(C[C@@H]2CC[C@H]21)C[C@@]1(CCCc2cc(Cl)ccc21)CO3` (single isomer, unassigned) [Example 100333], the IC50 in assay [1] (setting [5]) is 2.1 nM; in assay [2] (setting [7]) it was 2170 nM.
The corresponding values for `C[C@@H]1[C@@H](C)CCC[C@](O)(CS(C)(=O)=O)[C@@H]2CC[C@H]2CN2C[C@@]3(CCCc4cc(Cl)ccc43)COc3ccc(cc32)C(=O)NS1(=O)=O` (stereo in doubt) [Example 100161] are 0.355 nM and 757 nM.
For the compound `CCO[C@@]1(CN2CCN3CCCC[C@@H]3C2)/C=C/CC[C@@H](CC)S(=O)(=O)NC(=O)c2ccc3c(c2)N(C[C@@H]2CC[C@H]21)C[C@@]1(CCCc2cc(Cl)ccc21)CO3` [Example 43, (1S,3′R,6′R,7′S,8′E,12′R)-6-chloro-7′-ethoxy-12′-ethyl-7′-((9aR)-octahydro-2H-pyrido[1,2-a]pyrazin-2-ylmethyl)-3,4-dihydro-2H,15′H-spiro[naphthalene-1,22′-[20]oxa[13]thia[1,14]diazatetracyclo [14.7.2.0~3,6~.0~19,24~]pentacosa[8,16,18,24]tetraen]-15′-one 13′,13′-dioxide], the figures for the IC50 in assay [1] (setting [3]) and in assay [2] (setting [4]) were 1.64 nM and 888 nM, respectively.
Consider `CO[C@@]1(Cc2ncco2)/C=C/C[C@H](C)[C@@H](C)S(=O)(=O)NC(=O)c2ccc3c(c2)N(C[C@@H]2CC[C@H]21)C[C@@]1(CCCc2cc(Cl)ccc21)CO3` [Example 100508, (1S,3′R,6′R,7′S,8′E,11′S,12′R)-6-chloro-7′-methoxy-11′,12′-dimethyl-7′-(1,3-oxazol-2-ylmethyl)-3,4-dihydro-2H,15′H-spiro[naphthalene-1,22′-[20]oxa[13]thia[1,14]diazatetracyclo [14.7.2.0~3,6~.0~19,24~]pentacosa[8,16,18,24]tetraen]-15′-one 13′,13′-dioxide], for which the IC50 in assay [1] (setting [5]) was determined as 2.73 nM; in assay [2] (setting [7]), 2500 nM.
Take `C[C@@H]1[C@@H](C)C/C=C/[C@](O)([C@@H](C)C(=O)OC(C)(C)C)[C@@H]2CC[C@H]2CN2C[C@@]3(CCCc4cc(Cl)ccc43)COc3ccc(cc32)C(=O)NS1(=O)=O` (single isomer, unassigned) [Example 100110]: the concentration for half-maximal inhibition (IC50) in assay [1] (setting [5]) came out at 1.48 nM; in assay [2] (setting [7]), 686 nM.
The matching figures for `CC[C@@H]1CC/C=C/[C@](C=O)(OC)[C@@H]2CC[C@H]2CN2C[C@@]3(CCCc4cc(Cl)ccc43)COc3ccc(cc32)C(=O)NS1(=O)=O` (single isomer, unassigned) [Example 100580]: 0.877 nM and 6580 nM.
Regarding `CO[C@@]1(CC(=O)N(C)CC(F)(F)F)/C=C/C[C@H](C)[C@@H](C)S(=O)(=O)NC(=O)c2ccc3c(c2)N(C[C@@H]2CC[C@H]21)C[C@@]1(CCCc2cc(Cl)ccc21)CO3` [Example 100375, 2-((1S,3′R,6′R,7′S,8′E,11′S,12′R)-6-chloro-7′-methoxy-11′,12′-dimethyl-13′,13′-dioxido-15′-oxo-3,4-dihydro-2H-spiro[naphthalene-1,22′-[20]oxa[13]thia[1,14]diazatetracyclo [14.7.2.0~3,6~.0~19,24~]pentacosa[8,16,18,24]tetraen]-7′-yl)-N-methyl-N-(2,2,2-trifluoroethyl)acetamide], the half-inhibitory concentration (IC50) in assay [1] (setting [5]) was determined as 0.07 nM; in assay [2] (setting [7]), 176 nM.
With `CO[C@@]1(CN2CC3(C2)CN(C)C(=O)O3)/C=C/C[C@H](C)[C@@H](C)S(=O)(=O)NC(=O)c2ccc3c(c2)N(C[C@@H]2CC[C@H]21)C[C@@]1(CCCc2cc(Cl)ccc21)CO3` [Example 291, (1S,3′R,6′R,7′S,8′E,11′S,12′R)-6-chloro-7′-methoxy-11′,12′-dimethyl-7′-((7-methyl-6-oxo-5-oxa-2,7-diazaspiro[3.4]oct-2-yl)methyl)-3,4-dihydro-2H,15′H-spiro[naphthalene-1,22′-[20]oxa[13]thia[1,14]diazatetracyclo [14.7.2.0~3,6~.0~19,24~]pentacosa[8,16,18,24]tetraen]-15′-one 13′,13′-dioxide], the half-inhibitory concentration (IC50) is 0.083 nM in assay [1] (setting [3]) and 104 nM in assay [2] (setting [4]).
